Patent US11072630B2, “Fluorinated and alkylated bile acids” (Metselex, Inc., priority 2015, dated 2021)

Columns and labels:
primary rat hepatocytes [1] = experiment: DCA-induced cytotoxicity, LDH release assay; details: for inhibition of DCA-induced LDH release: 100 μM bile acid, 50 μM DCA
Description: (§1) Primary rat hepatocytes were incubated with 100 μM UDCA, methylated UDCA, or no addition (control) for 12 h. Cells were then exposed to 50 μM DCA for 40 h before processing for cytotoxicity activity, including LDH (top), and adenylate kinase (middle) assays, and cell viability (bottom).
(§2) Briefly, rats were anesthetized with phenobarbital sodium (100 mg/kg body weight) injected into the peritoneal cavity. After administration of heparin (200 units/kg body weight) in the tail vein, the abdomen was opened and the portal vein exposed and cannulated. The liver was then perfused at 37° C. in situ with a calcium-free Hanks' Balanced Salt Solution (HBSS) for 10 min, and then with 0.05% collagenase type IV in calcium-present HBSS for another 10 min.
Hepatocyte suspensions were obtained by passing collagenase-digested livers through 125 μm gauze and washing cells in Complete William's E medium (William's E medium, Sigma-Aldrich Corp., St Louis, Mo., USA) supplemented with 26 mM sodium bicarbonate, 23 mM HEPES, 0.01 units/mL insulin, 2 mM L-glutamine, 10 nM dexamethasone, 100 units/mL penicillin, and 10% heat-inactivated fetal bovine serum (Invitrogen Corp., Carlsbad, Calif., USA). Viable primary rat hepatocytes were enriched by low-speed centrifugation at 200 g for 3 min. Cell viability was determined by trypan blue exclusion and was typically 80-85%. After isolation, hepatocytes were ressuspended in Complete William's E medium and plated on Primaria™ tissue culture dishes (BD Biosciences, San Jose, Calif., USA) at 5×10^4 cells/cm2.
Cells were maintained at 37° C. in a humidified atmosphere of 5% CO2 for 6 h, to allow attachment. […]
General cell death or cytotoxicity was evaluated using the lactate dehydrogenase (LDH) Cytotoxicity Detection KitPLUS (Roche Diagnostics GmbH, Mannheim, Germany), following the manufacturer's instructions. […] Finally, absorbance was measured at 490 nm, with 620 nm as reference, using a Bio-Rad model 680 microplate reader (Bio-Rad Laboratories, Hercules, Calif., USA).

primary rat hepatocytes [2] = experiment: Cytotoxicity of the bile acids alone in primary cultures of rat hepatocytes; details: bile acid alone
Description: MTS is bioreduced by cells into a formazan product that is soluble in tissue culture medium. […] The quantity of formazan product as measured by the amount of 490 nm absorbance is directly proportional to the number of living cells in culture.

primary rat hepatocytes [3] = experiment: Cell viability with the bile acids alone in primary cultures of rat hepatocytes; assay type: cell-based; details: bile acid alone
Description: as §2
Hepatocyte suspensions were obtained by passing collagenase-digested livers through 125 μm gauze and washing cells in Complete William's E medium (William's E medium, Sigma-Aldrich Corp., St Louis, Mo., USA) supplemented with 26 mM sodium bicarbonate, 23 mM HEPES, 0.01 units/mL insulin, 2 mM L-glutamine, 10 nM dexamethasone, 100 units/mL penicillin, and 10% heat-inactivated fetal bovine serum (Invitrogen Corp., Carlsbad, Calif., USA). Viable primary rat hepatocytes were enriched by low-speed centrifugation at 200 g for 3 min. Cell viability was determined by trypan blue exclusion and was typically 80-85%. […]
General cell death was also determined using a bioluminescent cytolysis assay, designed to measure the release of adenylate kinase (AK) enzyme from damaged cells (ToxiLight™ BioAssay Kit, Lonza). […] The absorbance of the formazan at 490 nm can be measured directly from 96-well assay plates without additional processing. […]

primary rat hepatocytes [4] = experiment: DCA-induced cytotoxicity, adenylate kinase release (ToxiLight Assay); assay type: cell-based; details: 100 μM bile acid, cells exposed to 50 μM DCA
Description: as §1
(§3) Briefly, rats were anesthetized with phenobarbital sodium (100 mg/kg body weight) injected into the peritoneal cavity. After administration of heparin (200 units/kg body weight) in the tail vein, the abdomen was opened and the portal vein exposed and cannulated. […]
(§4) Hepatocyte suspensions were obtained by passing collagenase-digested livers through 125 μm gauze and washing cells in Complete William's E medium (William's E medium, Sigma-Aldrich Corp., St Louis, Mo., USA) supplemented with 26 mM sodium bicarbonate, 23 mM HEPES, 0.01 units/mL insulin, 2 mM L-glutamine, 10 nM dexamethasone, 100 units/mL penicillin, and 10% heat-inactivated fetal bovine serum (Invitrogen Corp., Carlsbad, Calif., USA). […] Cell viability was determined by trypan blue exclusion and was typically 80-85%. […]
(§5) General cell death was also determined using a bioluminescent cytolysis assay, designed to measure the release of adenylate kinase (AK) enzyme from damaged cells (ToxiLight™ BioAssay Kit, Lonza). […]

primary rat hepatocytes [5] = experiment: DCA-induced loss of cell viability (CellTiter-Fluor Cell Viability Assay); assay type: cell-based; details: pretreatment with 100 μM bile acid, 50 μM DCA
Description: as §1, §3, §4, §5

primary rat hepatocytes [6] = experiment: TGF-β1-induced loss of cell viability (MTS activity); assay type: cell-based; details: 100 μM for 12 h, then 1 nM TGF-β1 for 36 h
Description: FIG. 5. […] Primary rat hepatocytes were pre-incubated with 100 μM methylated UDCA, or no addition (control) for 12 h. Cells were then exposed to 1 nM TGF-β1 for 36 h before processing for MTS activity.

Row | SMILES | inhibition of DCA-induced LDH release (primary rat hepatocytes [1]) [%] | cytotoxicity (primary rat hepatocytes [2]; 200 and 400 μM concentrations) | cytotoxicity (primary rat hepatocytes [2]; concentrations up to 100 μM) | cell viability (primary rat hepatocytes [3]; from 10 to 100 μM concentrations) | viability (primary rat hepatocytes [3]; highest bile acid concentrations (200 and 400 μM)) | protection against DCA-induced adenylate kinase release (ToxiLight Assay) (primary rat hepatocytes [4]) | rescue of cell viability in cells exposed to DCA (primary rat hepatocytes [5]) | inhibition of TGF-β1-induced reduction in MTT metabolism / loss of cell viability (primary rat hepatocytes [6]) | inhibition of TGF-β1-induced reduction in MTT metabolism / loss of cell viability (primary rat hepatocytes [6]; listed as Methylated UDCA) | prevention of DCA-induced cytotoxicity (FIG. 4 legend) (primary rat hepatocytes [1]; 100 μM for 12 h, then 50 μM DCA for 40 h, LDH and adenylate kinase assays)
1 | C[C@H](CCC(=O)O)[C@H]1CC[C@H]2[C@@H]3[C@@H](O)C[C@@H]4C[C@H](O)CC[C@]4(C)[C@H]3CC[C@]12C [UDCA, ursodeoxycholic acid, reference compound] | ~70 |  |  |  |  |  |  |  |  | 
2 | CO[C@H]1C[C@@H]2C[C@H](O)CC[C@]2(C)[C@H]2CC[C@]3(C)[C@@H]([C@H](C)CCC(=O)O)CC[C@H]3[C@H]12 [methylated UDCA, 3α-hydroxy,7β-methoxy-5β-cholan-24-oic acid] | ~70 | an increase in cytotoxicity was evident | remained largely unchanged | tended to increase cell viability | decreased viability | slightly better protection | effective at rescuing cell viability | effective at inhibiting TGF-β1-induced reduction in MTT metabolism | prevents TGF-β1-induced loss of cell viability | prevents DCA-induced cytotoxicity
